According to ChEMBL document CHEMBL3600314, “Discovery and characterization of a potent and selective EP4 receptor antagonist” (Bioorg Med Chem Lett, 2015):
Values belong to the compound of their own block, whether it stands above or below them. Calls of active or inactive are those of the source. The calls are words filed in the database; no cut-off is given here.

Columns and labels:
[1] = molecular target: T1, Prostaglandin E2 receptor EP4 subtype (Homo sapiens, UniProt P35408); test: Displacement of [3H]-PGE2 from recombinant human EP4 receptor expressed in HEK293 cell membranes after 90 mins by liquid scintillation counting analysis
[2] = molecular target: T1, Prostaglandin E2 receptor EP4 subtype; test: Antagonist activity at recombinant human EP4 receptor expressed in HEK293 cells assessed as inhibition of PGE2-stimulated cAMP accumulation by scintillation proximity assay in presence of [125I]-cAMP; format: functional, cell-based
[3] = molecular target: T1, Prostaglandin E2 receptor EP4 subtype; test: Antagonist activity at EP4 receptor in LPS-stimulated human whole blood assessed as inhibition of PGE2-induced TNF-alpha reduction preincubated for 30 mins followed by PGE2 addition measured after 24 hrs by ELISA
[4] = molecular target: Histamine H1 receptor (Homo sapiens) (UniProt P35367); test: Inhibition of human histamine H1 receptor at 10 uM relative to control
[5] = Plasma concentration in Beagle dog at 10 mg/kg, po measured over 24 hrs; format: ADME, organism-based, Canis lupus familiaris
[6] = molecular target: Mu-type opioid receptor (Homo sapiens) (UniProt P35372); test: Inhibition of human mu opioid receptor at 10 uM relative to control
[7] = molecular target: Voltage-gated inwardly rectifying potassium channel KCNH2 (Homo sapiens, UniProt Q12809); test: Displacement of [3H]-astemizole from human ERG up to 100 uM
[8] = molecular target: Muscarinic acetylcholine receptor M3 (Homo sapiens) (UniProt P20309); test: Inhibition of human muscarinic M3 receptor at 10 uM relative to control
[9] = Solubility of the compound in FedSIF; format: physicochemical; conditions: FeSSIF
[10] = molecular target: T2, Prostaglandin E2 receptor EP2 subtype (Homo sapiens, UniProt P43116); test: Agonist activity at recombinant human EP2 receptor expressed in CHO cells assessed as induction of cAMP accumulation at 1 uM after 15 mins by scintillation proximity assay in presence of [125I]-cAMP; format: functional, cell-based
[11] = molecular target: T2, Prostaglandin E2 receptor EP2 subtype; test: Displacement of [3H]-PGE2 from human EP2 receptor by liquid scintillation counting analysis
Cytochrome P450 2C9 = Cytochrome P450 2C9 (Homo sapiens, UniProt P11712); test: Inhibition of CYP2C9 (unknown origin); format: ADME
Cytochrome P450 2C19 = Cytochrome P450 2C19 (Homo sapiens, UniProt P33261); test: Inhibition of CYP2C19 (unknown origin); format: ADME
[12] = Plasma concentration in Beagle dog at 10 mg/kg, po measured over 12 hrs; format: ADME, organism-based, Canis lupus familiaris
[13] = molecular target: L-type calcium channel verapamil binding site (Homo sapiens, UniProt O60840+Q01668+Q13698+Q13936); test: Inhibition of L-type calcium channel verapamil binding site (unknown origin) at 10 uM relative to control; format: protein assay
[14] = molecular target: Beta-2 adrenergic receptor (Homo sapiens) (UniProt P07550); test: Inhibition of human adrenergic beta2 receptor at 10 uM relative to control
[15] = molecular target: L-type calcium channel diltiazem binding site (Homo sapiens, UniProt O60840+Q01668+Q13698+Q13936); test: Inhibition of L-type calcium channel diltiazem binding site (unknown origin) at 10 uM relative to control; format: protein assay
[16] = molecular target: Beta-1 adrenergic receptor (Homo sapiens) (UniProt P08588); test: Inhibition of human adrenergic beta1 receptor at 10 uM relative to control
[17] = molecular target: Prostaglandin E2 receptor EP1 subtype (Homo sapiens, UniProt P34995); test: Displacement of [3H]-PGE2 from human EP1 receptor by liquid scintillation counting analysis
[18] = molecular target: Adrenergic receptor alpha-2 (Rattus norvegicus) (UniProt P22086+P19328+P22909); test: Inhibition of rat adrenergic alpha2 receptor at 10 uM relative to control
[19] = molecular target: Sodium-dependent noradrenaline transporter (Homo sapiens) (UniProt P23975); test: Inhibition of human NE transporter at 10 uM relative to control
[20] = molecular target: D(1A) dopamine receptor (Homo sapiens) (UniProt P21728); test: Inhibition of human dopamine D1 receptor at 10 uM relative to control
[21] = molecular target: Muscarinic acetylcholine receptor M2 (Homo sapiens) (UniProt P08172); test: Inhibition of human muscarinic M2 receptor at 10 uM relative to control
[22] = molecular target: Prostaglandin E2 receptor EP3 subtype (Homo sapiens, UniProt P43115); test: Displacement of [3H]-PGE2 from human EP3 receptor by liquid scintillation counting analysis
[23] = Clearance in Beagle dog at 10 mg/kg, po and 1 mg/kg, iv; format: ADME, organism-based, Canis lupus familiaris; conditions: in vivo
[24] = Tmax in Beagle dog at 10 mg/kg, po; format: ADME, organism-based, Canis lupus familiaris; conditions: in vivo
[25] = molecular target: 5-hydroxytryptamine receptor 2B (Homo sapiens) (UniProt P41595); test: Inhibition of human 5-HT2B receptor at 10 uM relative to control
Rattus norvegicus = species on record: Rattus norvegicus; test: Inhibition of rat chloride channel at 10 uM relative to control
[26] = molecular target: D(2) dopamine receptor (Homo sapiens) (UniProt P14416); test: Inhibition of human dopamine D2S receptor at 10 uM relative to control
Cytochrome P450 2B6 = Cytochrome P450 2B6 (Homo sapiens, UniProt P20813); test: Inhibition of CYP2B6 (unknown origin); format: ADME
[27] = Solubility of the compound in FasSIF; format: physicochemical
[28] = Solubility of the compound in SGF; format: physicochemical
Cytochrome P450 2D6 = Cytochrome P450 2D6 (Homo sapiens, UniProt P10635); test: Inhibition of CYP2D6 (unknown origin); format: ADME
Cytochrome P450 2C8 = Cytochrome P450 2C8 (Homo sapiens, UniProt P10632); test: Inhibition of CYP2C8 (unknown origin); format: ADME
[29] = molecular target: Adenosine receptor A3 (Homo sapiens) (UniProt P0DMS8); test: Inhibition of human adenosine A3 receptor at 10 uM relative to control
[30] = Oral bioavailability in Beagle dog at 10 mg/kg; format: ADME, organism-based, Canis lupus familiaris; conditions: in vivo
[31] = molecular target: L-type calcium channel dihydropyridine binding site (Homo sapiens, UniProt O60840+Q01668+Q13698+Q13936); test: Inhibition of L-type calcium channel dihydropyridine binding site (unknown origin) at 10 uM relative to control; format: protein assay
Cytochrome P450 3A4 = Cytochrome P450 3A4 (Homo sapiens, UniProt P08684); test: Inhibition of CYP3A4 (unknown origin); format: ADME
[32] = molecular target: Adrenergic receptor alpha-1 (Rattus norvegicus) (UniProt P15823+P23944+P43140); test: Inhibition of rat adrenergic alpha1 receptor at 10 uM relative to control
[33] = molecular target: Prostaglandin E synthase (Homo sapiens) (UniProt O14684); test: Inhibition of microsomal PGES-1 (unknown origin) up to 62.5 uM
[34] = molecular target: T2, Prostaglandin E2 receptor EP2 subtype; test: Antagonist activity at recombinant human EP2 receptor expressed in CHO cells assessed as inhibition of PGE2-stimulated cAMP accumulation at 1 uM by scintillation proximity assay in presence of [125I]-cAMP; format: functional, cell-based
Cytochrome P450 1A2 = Cytochrome P450 1A2 (Homo sapiens, UniProt P05177); test: Inhibition of CYP1A2 (unknown origin); format: ADME

T2 sequence (P43116 whole entry): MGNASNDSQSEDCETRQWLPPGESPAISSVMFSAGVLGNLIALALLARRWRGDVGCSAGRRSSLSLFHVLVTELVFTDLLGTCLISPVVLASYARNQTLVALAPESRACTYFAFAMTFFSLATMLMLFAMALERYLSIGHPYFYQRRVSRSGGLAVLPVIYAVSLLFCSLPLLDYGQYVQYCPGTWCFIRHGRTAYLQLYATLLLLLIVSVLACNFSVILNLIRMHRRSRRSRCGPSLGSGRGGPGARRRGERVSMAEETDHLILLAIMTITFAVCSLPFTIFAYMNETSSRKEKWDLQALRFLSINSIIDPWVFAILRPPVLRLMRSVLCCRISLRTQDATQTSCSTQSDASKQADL
T1 sequence (P35408 whole entry): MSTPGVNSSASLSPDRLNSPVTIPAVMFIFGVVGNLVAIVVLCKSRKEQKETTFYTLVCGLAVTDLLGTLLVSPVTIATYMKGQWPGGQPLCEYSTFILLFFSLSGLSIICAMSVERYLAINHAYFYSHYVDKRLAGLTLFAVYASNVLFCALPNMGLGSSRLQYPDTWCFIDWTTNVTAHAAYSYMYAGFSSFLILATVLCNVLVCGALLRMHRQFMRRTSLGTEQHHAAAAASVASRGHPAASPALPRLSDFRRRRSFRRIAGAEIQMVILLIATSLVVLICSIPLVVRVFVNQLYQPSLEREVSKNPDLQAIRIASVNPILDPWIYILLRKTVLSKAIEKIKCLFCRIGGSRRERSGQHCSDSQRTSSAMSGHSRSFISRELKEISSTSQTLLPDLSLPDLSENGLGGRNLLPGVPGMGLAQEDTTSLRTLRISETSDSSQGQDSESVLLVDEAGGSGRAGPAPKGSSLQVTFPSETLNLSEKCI
Chain of Prostaglandin E2 receptor EP3 subtype (P43115 whole entry): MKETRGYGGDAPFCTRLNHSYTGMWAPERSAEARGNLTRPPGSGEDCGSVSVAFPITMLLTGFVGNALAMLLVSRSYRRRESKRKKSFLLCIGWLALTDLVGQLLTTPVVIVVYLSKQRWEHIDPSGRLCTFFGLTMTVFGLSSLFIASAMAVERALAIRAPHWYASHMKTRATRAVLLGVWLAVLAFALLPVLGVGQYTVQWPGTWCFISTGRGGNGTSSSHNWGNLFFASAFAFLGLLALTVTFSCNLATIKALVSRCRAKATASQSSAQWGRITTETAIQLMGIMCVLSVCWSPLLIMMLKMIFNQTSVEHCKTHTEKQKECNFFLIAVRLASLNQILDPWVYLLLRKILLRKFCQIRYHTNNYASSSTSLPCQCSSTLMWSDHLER
Chain of Prostaglandin E2 receptor EP1 subtype (P34995 whole entry): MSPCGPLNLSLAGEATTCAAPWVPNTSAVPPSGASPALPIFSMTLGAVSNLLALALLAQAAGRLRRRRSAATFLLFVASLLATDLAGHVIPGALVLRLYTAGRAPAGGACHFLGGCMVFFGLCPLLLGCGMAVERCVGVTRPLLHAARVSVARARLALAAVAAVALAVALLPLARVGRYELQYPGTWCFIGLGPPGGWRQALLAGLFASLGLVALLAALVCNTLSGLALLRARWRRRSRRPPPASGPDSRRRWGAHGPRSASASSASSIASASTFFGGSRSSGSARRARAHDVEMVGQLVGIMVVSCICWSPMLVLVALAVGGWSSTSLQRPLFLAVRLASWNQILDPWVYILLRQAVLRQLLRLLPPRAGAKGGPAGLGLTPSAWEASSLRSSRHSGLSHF
Chain of Histamine H1 receptor (Homo sapiens) (P35367 whole entry): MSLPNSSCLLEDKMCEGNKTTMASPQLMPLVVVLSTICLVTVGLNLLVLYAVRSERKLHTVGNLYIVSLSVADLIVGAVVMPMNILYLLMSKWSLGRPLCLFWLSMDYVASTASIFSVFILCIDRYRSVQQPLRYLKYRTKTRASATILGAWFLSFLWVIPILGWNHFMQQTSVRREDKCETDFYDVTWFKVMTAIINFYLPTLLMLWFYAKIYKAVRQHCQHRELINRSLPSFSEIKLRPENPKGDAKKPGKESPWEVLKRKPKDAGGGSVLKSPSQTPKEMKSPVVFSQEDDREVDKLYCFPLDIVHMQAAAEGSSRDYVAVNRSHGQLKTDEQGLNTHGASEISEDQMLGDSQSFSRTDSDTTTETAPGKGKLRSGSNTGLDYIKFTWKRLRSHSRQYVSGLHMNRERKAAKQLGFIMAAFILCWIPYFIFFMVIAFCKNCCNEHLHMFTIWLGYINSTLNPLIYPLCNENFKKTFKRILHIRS
Chain of Muscarinic acetylcholine receptor M3 (Homo sapiens) (P20309 whole entry, looked up): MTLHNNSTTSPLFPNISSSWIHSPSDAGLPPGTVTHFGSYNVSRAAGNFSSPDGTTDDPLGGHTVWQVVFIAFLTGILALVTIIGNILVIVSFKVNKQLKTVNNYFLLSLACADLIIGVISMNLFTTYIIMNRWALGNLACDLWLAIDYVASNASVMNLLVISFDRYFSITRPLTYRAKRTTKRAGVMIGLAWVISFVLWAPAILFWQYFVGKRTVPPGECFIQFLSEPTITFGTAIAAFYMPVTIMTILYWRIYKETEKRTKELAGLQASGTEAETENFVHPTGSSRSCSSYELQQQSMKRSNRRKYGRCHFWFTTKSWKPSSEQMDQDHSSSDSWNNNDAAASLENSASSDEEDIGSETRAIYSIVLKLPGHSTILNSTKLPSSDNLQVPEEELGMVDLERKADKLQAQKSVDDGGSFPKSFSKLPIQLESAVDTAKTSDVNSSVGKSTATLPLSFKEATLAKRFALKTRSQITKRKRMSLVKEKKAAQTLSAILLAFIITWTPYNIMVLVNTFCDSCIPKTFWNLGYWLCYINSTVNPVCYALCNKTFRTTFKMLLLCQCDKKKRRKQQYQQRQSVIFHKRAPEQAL
Chain of Voltage-gated inwardly rectifying potassium channel KCNH2 (Q12809 whole entry): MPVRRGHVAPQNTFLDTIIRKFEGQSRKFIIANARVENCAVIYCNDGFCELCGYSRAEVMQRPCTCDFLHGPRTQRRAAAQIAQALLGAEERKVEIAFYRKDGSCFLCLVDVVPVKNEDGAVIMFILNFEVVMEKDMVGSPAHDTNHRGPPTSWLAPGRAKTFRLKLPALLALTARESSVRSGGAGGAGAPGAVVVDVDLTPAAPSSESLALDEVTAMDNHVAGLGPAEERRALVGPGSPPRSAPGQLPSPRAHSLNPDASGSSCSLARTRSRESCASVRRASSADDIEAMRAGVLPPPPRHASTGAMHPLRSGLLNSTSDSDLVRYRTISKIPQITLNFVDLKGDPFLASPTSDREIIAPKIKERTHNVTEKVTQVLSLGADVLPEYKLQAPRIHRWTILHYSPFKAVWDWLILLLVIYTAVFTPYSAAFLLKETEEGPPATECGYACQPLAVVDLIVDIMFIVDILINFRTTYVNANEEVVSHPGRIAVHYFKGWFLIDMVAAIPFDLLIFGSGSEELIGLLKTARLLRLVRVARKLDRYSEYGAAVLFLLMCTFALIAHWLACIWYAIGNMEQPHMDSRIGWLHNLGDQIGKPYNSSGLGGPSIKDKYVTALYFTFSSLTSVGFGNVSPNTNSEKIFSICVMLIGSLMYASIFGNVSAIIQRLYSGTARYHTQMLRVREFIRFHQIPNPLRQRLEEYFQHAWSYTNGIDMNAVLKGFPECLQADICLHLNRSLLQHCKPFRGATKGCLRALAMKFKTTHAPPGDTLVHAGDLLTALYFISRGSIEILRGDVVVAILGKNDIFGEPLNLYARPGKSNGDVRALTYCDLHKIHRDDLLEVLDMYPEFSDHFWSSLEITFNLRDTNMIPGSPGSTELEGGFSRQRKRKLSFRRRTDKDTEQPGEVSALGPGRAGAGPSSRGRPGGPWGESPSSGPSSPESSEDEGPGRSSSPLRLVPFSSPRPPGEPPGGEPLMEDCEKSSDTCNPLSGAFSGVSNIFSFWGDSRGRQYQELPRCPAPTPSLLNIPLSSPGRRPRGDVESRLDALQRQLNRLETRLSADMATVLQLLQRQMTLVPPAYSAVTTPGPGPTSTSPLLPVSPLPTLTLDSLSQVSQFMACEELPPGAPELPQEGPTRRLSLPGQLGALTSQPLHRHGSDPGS
Chain of Beta-2 adrenergic receptor (Homo sapiens) (P07550 whole entry, looked up): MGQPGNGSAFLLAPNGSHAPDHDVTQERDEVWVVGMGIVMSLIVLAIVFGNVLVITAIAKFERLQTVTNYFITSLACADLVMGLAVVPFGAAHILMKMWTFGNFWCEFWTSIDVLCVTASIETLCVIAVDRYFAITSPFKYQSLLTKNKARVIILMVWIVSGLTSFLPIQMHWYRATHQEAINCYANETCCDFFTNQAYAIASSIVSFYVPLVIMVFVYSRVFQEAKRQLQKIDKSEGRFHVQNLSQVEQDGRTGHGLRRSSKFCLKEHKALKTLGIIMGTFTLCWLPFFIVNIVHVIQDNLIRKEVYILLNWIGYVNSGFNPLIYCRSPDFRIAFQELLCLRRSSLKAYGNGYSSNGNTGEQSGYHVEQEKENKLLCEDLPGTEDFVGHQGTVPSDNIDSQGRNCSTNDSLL
Chain of Cytochrome P450 2C8 (P10632 whole entry): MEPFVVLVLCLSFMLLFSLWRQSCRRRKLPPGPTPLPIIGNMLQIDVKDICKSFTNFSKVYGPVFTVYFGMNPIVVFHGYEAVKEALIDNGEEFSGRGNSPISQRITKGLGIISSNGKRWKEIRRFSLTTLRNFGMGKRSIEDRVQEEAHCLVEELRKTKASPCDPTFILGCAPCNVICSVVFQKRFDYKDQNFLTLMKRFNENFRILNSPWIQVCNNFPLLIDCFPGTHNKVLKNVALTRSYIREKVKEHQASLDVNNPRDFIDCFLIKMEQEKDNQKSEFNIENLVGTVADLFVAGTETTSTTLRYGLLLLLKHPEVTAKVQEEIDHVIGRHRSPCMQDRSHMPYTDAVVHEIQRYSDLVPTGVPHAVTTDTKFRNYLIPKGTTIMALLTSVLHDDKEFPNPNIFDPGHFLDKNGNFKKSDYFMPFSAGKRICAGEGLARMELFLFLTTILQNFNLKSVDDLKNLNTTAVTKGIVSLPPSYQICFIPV
Chain of Prostaglandin E synthase (Homo sapiens) (O14684 whole entry): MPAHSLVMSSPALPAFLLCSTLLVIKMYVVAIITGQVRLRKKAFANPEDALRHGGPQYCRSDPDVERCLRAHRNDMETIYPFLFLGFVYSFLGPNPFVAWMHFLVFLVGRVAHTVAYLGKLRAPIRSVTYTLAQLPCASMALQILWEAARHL

IC50 [1]: 203 nM | Ki [1]: 126 nM | IC50 [2]: 18.1 nM | IC50 [3]: 899 nM
Compound: O=C(O)c1ccc(CNC(=O)[C@H]2CCCCN2CCOc2ccccc2)cc1

IC50 [1]: 71.8 nM | Ki [1]: 40.4 nM | IC50 [2]: 2.87 nM | IC50 [3]: 121 nM
Compound: C[C@H](NC(=O)[C@H]1CCCCN1CCOc1ccc(F)cc1)c1ccc(C(=O)O)cc1

inhibition [4]: 7% | concentration at 24 h [5]: > 100 nM | inhibition [6]: 1% | inhibition [8]: 7% | solubility [9]: > 2000 µg/mL | Activity [10]: Active | IC50 [11]: 1630 nM | IC50 (Cytochrome P450 2C9): > 10000 nM | IC50 (Cytochrome P450 2C19): > 10000 nM | concentration at 12 h [12]: > 1000 nM | inhibition at 10 µM [13]: 5% | inhibition [14]: 2% | inhibition at 10 µM [15]: -7% | inhibition [16]: 6% | IC50 [17]: > 25000 nM | Ki [17]: > 17500 nM | inhibition [18]: -6% | inhibition [19]: 7% | inhibition [20]: -6% | inhibition [21]: -1% | IC50 [22]: > 25000 nM | Ki [22]: > 12700 nM | clearance [23]: 5.2 mL/min/kg | Tmax [24]: 15 min | inhibition [25]: 10% | inhibition (Rattus norvegicus): 6% | inhibition [26]: 13% | IC50 (Cytochrome P450 2B6): > 10000 nM | solubility [27]: > 2000 µg/mL | solubility [28]: 1320 µg/mL | IC50 (Cytochrome P450 2D6): > 10000 nM | IC50 (Cytochrome P450 2C8): > 10000 nM | inhibition [29]: -9% | bioavailability [30]: 81% | inhibition at 10 µM [31]: -60% | IC50 (Cytochrome P450 3A4): > 10000 nM | inhibition [32]: 1% | inhibition [33]: inactive | inhibition [34]: Active | IC50 (Cytochrome P450 1A2): > 10000 nM
Compound: C[C@H](NC(=O)[C@H]1CCCCN1CCOc1ccccc1)c1ccc(C(=O)O)cc1.Cl
inhibition (INH) [7]: Not Active

IC50 [1]: 689 nM | IC50 [3]: 1610 nM
Compound: CCc1nc2c(C)nc(C)cc2n1-c1ccc(CCNC(=O)NS(=O)(=O)c2ccc(C)cc2)cc1 [GRAPIPRANT]

IC50 [1]: 621 nM | Ki [1]: 372 nM | IC50 [2]: 35.8 nM | IC50 [3]: 1210 nM
Compound: C[C@H](NC(=O)[C@H]1CCCCN1CCOc1ccc(C#N)cc1)c1ccc(C(=O)O)cc1

IC50 [1]: 232 nM | Ki [1]: 129 nM | IC50 [2]: 14.4 nM | IC50 [3]: 291 nM
Compound: CC[C@H](NC(=O)[C@H]1CCCCN1CCOc1ccccc1)c1ccc(C(=O)O)cc1

IC50 [1]: 77.8 nM | Ki [1]: 44.8 nM | IC50 [2]: 5.42 nM | IC50 [3]: 586 nM
Compound: O=C(O)c1ccc(C2(NC(=O)[C@H]3CCCCN3CCOc3ccccc3)CC2)cc1
